Several values for one entry are separate records, joined by “and”; a condition that tells them apart may be missing. Equal values may be shown once. Toxic doses and inconclusive results are not listed. How the source made its calls: active means survival T/C of 150% or more; inactive means T/C below 125% in these data.
Test system: P388 leukemia ip, CD2F1 mice, survival T/C
Assay: NCI In Vivo Anticancer Drug Screen. Data for tumor model P388 Leukemia (intraperitoneal) in CD2F1 (CDF1) mice
Settings: endpoint: median survival time, higher = longer survival
In short: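 Mice carrying the transplanted tumor received test compound or vehicle. Survival was recorded in each group, and the value is the treated-group measurement divided by that of the vehicle-treated control group.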

[1] = dose: 60.0 mg/kg/injection, schedule: Q01DX005 (ip), vehicle: saline
[2] = dose: 120.0 mg/kg/injection, schedule: Q01DX005 (ip), vehicle: saline
[3] = dose: 240.0 mg/kg/injection, schedule: Q01DX005 (ip), vehicle: saline
[4] = dose: 200.0 mg/kg/injection, schedule: Q04DX003 (ip), vehicle: saline with Tween-80
[5] = dose: 400.0 mg/kg/injection, schedule: Q04DX003 (ip), vehicle: saline with Tween-80
[6] = dose: 12.5 mg/kg/injection, schedule: Q01DX009 (ip), vehicle: Klucel (hydroxypropylcellulose) (HPC)
[7] = dose: 25.0 mg/kg/injection, schedule: Q01DX009 (ip), vehicle: Klucel (hydroxypropylcellulose) (HPC)
[8] = dose: 50.0 mg/kg/injection, schedule: Q01DX009 (ip), vehicle: Klucel (hydroxypropylcellulose) (HPC)
[9] = dose: 50.0 mg/kg/injection, schedule: Q01DX009 (ip), vehicle: saline with Tween-80
[10] = dose: 100.0 mg/kg/injection, schedule: Q01DX009 (ip), vehicle: saline with Tween-80
[11] = dose: 200.0 mg/kg/injection, schedule: Q01DX009 (ip), vehicle: saline with Tween-80
[12] = dose: 60.0 mg/kg/injection, schedule: Q01DX005 (ip), vehicle: saline with Tween-80
[13] = dose: 120.0 mg/kg/injection, schedule: Q01DX005 (ip), vehicle: saline with Tween-80
[14] = dose: 240.0 mg/kg/injection, schedule: Q01DX005 (ip), vehicle: saline with Tween-80

Measured: T/C

CCC[CH2][Pb]([Cl])([CH2]CCC)[CH2]CCC
inactive: dose: 1.25 mg/kg/injection, schedule: Q01DX009 (ip), vehicle: saline with Tween-80 99 % of control | dose: 2.5 mg/kg/injection, schedule: Q01DX009 (ip), vehicle: saline with Tween-80 99 % of control | dose: 5.0 mg/kg/injection, schedule: Q01DX009 (ip), vehicle: saline with Tween-80 107 % of control | dose: 10.0 mg/kg/injection, schedule: Q01DX009 (ip), vehicle: saline with Tween-80 103 % of control

CC(=O)Cc1cc(-c2cc(CC(C)=O)nc(N)n2)nc(N)n1
inactive: [1] 96 % of control | [2] 96 % of control | [3] 97 % of control

CP1(=O)CCC2=C1CCCC2 (stereo unspecified)
inactive: dose: 100.0 mg/kg/injection, schedule: Q04DX003 (ip), vehicle: saline with Tween-80 105 % of control | [4] 107 % of control | [5] 104 % of control

Cc1cccc(N2CCN(C(=O)/C(=C/c3ccccc3)NC(=O)c3ccccc3)CC2)c1
inactive: dose: 50.0 mg/kg/injection, schedule: Q01DX005 (ip), vehicle: saline with Tween-80 93 % of control | dose: 100.0 mg/kg/injection, schedule: Q01DX005 (ip), vehicle: saline with Tween-80 89 % of control

c1ccc(C(Sc2ncnc3nc[nH]c23)c2ccccc2)cc1
inactive: dose: 50.0 mg/kg/injection, schedule: Q01DX009 (ip), vehicle: saline 102 % of control | dose: 100.0 mg/kg/injection, schedule: Q01DX009 (ip), vehicle: saline 102 % of control | dose: 200.0 mg/kg/injection, schedule: Q01DX009 (ip), vehicle: saline 111 % of control

O=c1[nH][nH]c2c([N+](=O)[O-])ccc(F)c12
inactive: [6] 100 % of control | [7] 101 % of control | [8] 110 % of control

COC(=O)[CH2][Sn]([CH3])([CH3])[CH2]C(=O)OC
inactive: dose: 12.5 mg/kg/injection, schedule: Q01DX005 (ip), vehicle: saline 114 % of control | dose: 25.0 mg/kg/injection, schedule: Q01DX005 (ip), vehicle: saline 124 % of control | dose: 50.0 mg/kg/injection, schedule: Q01DX005 (ip), vehicle: saline 123 % of control

NOCc1ccc(CON)cc1
inactive: [9] 95 % of control | [10] 95 % of control | [11] 91 % of control

Cc1ccc(C(O)(C(F)(F)F)C(O)(c2ccc(C)cc2)C(F)(F)F)cc1 (stereo unspecified)
inactive: [9] 107 % of control and 100 % of control | [10] 107 % of control and 104 % of control | [11] 101 % of control and 105 % of control

O=C(S)CC1(O)CCCCC12OC2c1ccccc1 (stereo unspecified)
inactive: dose: 100.0 mg/kg/injection, schedule: Q01DX001 (ip), vehicle: Klucel (hydroxypropylcellulose) (HPC) 99 % of control | dose: 200.0 mg/kg/injection, schedule: Q01DX001 (ip), vehicle: Klucel (hydroxypropylcellulose) (HPC) 104 % of control | dose: 400.0 mg/kg/injection, schedule: Q01DX001 (ip), vehicle: Klucel (hydroxypropylcellulose) (HPC) 103 % of control

C=C(C)C1CC(=O)C2(C)OC2C1 (stereo unspecified)
inactive: dose: 100.0 mg/kg/injection, schedule: Q04DX002 (ip), vehicle: saline 101 % of control | dose: 200.0 mg/kg/injection, schedule: Q04DX002 (ip), vehicle: saline 100 % of control | dose: 400.0 mg/kg/injection, schedule: Q04DX002 (ip), vehicle: saline 97 % of control

CN=C(N)N/N=C(\C)c1ccc2c(c1)-c1ccc(/C(C)=N/NC(N)=NC)c3cccc-2c13
inactive: dose: 3.12 mg/kg/injection, schedule: Q04DX002 (ip), vehicle: saline with Tween-80 104 % of control | dose: 6.25 mg/kg/injection, schedule: Q04DX002 (ip), vehicle: saline with Tween-80 99 % of control | dose: 12.5 mg/kg/injection, schedule: Q04DX002 (ip), vehicle: saline with Tween-80 100 % of control

CCCCCCCCCCCCCC(CCCC)CCCCCCCC (stereo unspecified)
inactive: dose: 37.5 mg/kg/injection, schedule: Q01DX001 (ip), vehicle: saline sonified 104 % of control | dose: 75.0 mg/kg/injection, schedule: Q01DX001 (ip), vehicle: saline sonified 100 % of control | dose: 150.0 mg/kg/injection, schedule: Q01DX001 (ip), vehicle: saline sonified 100 % of control

COc1cc2c(cc1OC)-c1c3c(cc4c1[C@H](C2)N(C)CC4)OCO3
inactive: [4] 110 % of control | [5] 110 % of control

CNC(=O)OCc1nn(-c2ccc(Cl)c(Cl)c2)c(C)c1COC(=O)NC
inactive: dose: 12.5 mg/kg/injection, schedule: Q01DX009 (ip), vehicle: distilled water + Tween-80 87 % of control and 93 % of control | dose: 25.0 mg/kg/injection, schedule: Q01DX009 (ip), vehicle: distilled water + Tween-80 86 % of control and 89 % of control | dose: 50.0 mg/kg/injection, schedule: Q01DX009 (ip), vehicle: distilled water + Tween-80 90 % of control | dose: 100.0 mg/kg/injection, schedule: Q01DX009 (ip), vehicle: distilled water + Tween-80 88 % of control | dose: 200.0 mg/kg/injection, schedule: Q01DX009 (ip), vehicle: distilled water + Tween-80 86 % of control and 87 % of control

O=S(=O)(Cl)CCCCS(=O)(=O)Cl
inactive: [6] 103 % of control | [7] 91 % of control | [8] 99 % of control and 101 % of control

O=c1cc(Nc2ccc(Br)cc2)[nH]c(=O)[nH]1
inactive: [12] 94 % of control | [13] 100 % of control | [14] 102 % of control

O=C(O)C12C3CCC(O3)C1(C(=O)O)C1CCC2O1 (stereo unspecified)
inactive: [12] 94 % of control | [13] 90 % of control | [14] 88 % of control

c1cc(OCC2CO2)cc(OCC2CO2)c1 (stereo unspecified)
inactive: dose: 3.12 mg/kg/injection, schedule: Q01DX009 (ip), vehicle: DMSO 88 % of control | dose: 6.25 mg/kg/injection, schedule: Q01DX009 (ip), vehicle: DMSO 88 % of control | dose: 12.5 mg/kg/injection, schedule: Q01DX009 (ip), vehicle: DMSO 100 % of control | dose: 25.0 mg/kg/injection, schedule: Q01DX009 (ip), vehicle: DMSO 104 % of control and 96 % of control | dose: 50.0 mg/kg/injection, schedule: Q01DX009 (ip), vehicle: DMSO 104 % of control | dose: 100.0 mg/kg/injection, schedule: Q01DX009 (ip), vehicle: DMSO 95 % of control

CC1(c2ccccc2)CCCC(C#N)C1=N (stereo unspecified)
inactive: dose: 12.5 mg/kg/injection, schedule: Q01DX001 (ip), vehicle: Klucel (hydroxypropylcellulose) (HPC) 106 % of control | dose: 25.0 mg/kg/injection, schedule: Q01DX001 (ip), vehicle: Klucel (hydroxypropylcellulose) (HPC) 100 % of control | dose: 50.0 mg/kg/injection, schedule: Q01DX001 (ip), vehicle: Klucel (hydroxypropylcellulose) (HPC) 103 % of control

CCN(CC)Cc1cc(N=Nc2c(O)ccc3c(N=Nc4ccc(O)c(CN(CC)CC)c4)c(O)ccc23)ccc1O
inactive: dose: 50.0 mg/kg/injection, schedule: Q01DX005 (ip), vehicle: Klucel (hydroxypropylcellulose) (HPC) 108 % of control | dose: 100.0 mg/kg/injection, schedule: Q01DX005 (ip), vehicle: Klucel (hydroxypropylcellulose) (HPC) 109 % of control

Cc1ccn(C)n1
inactive: [1] 96 % of control | [2] 93 % of control | [3] 100 % of control

C=C1C(=O)OC2/C=C(/C)C(OC(C)=O)CC(O)/C(C)=C\C(OC(=O)/C(C)=C\C)C12 (stereo unspecified)
inactive: dose: 12.5 mg/kg/injection, schedule: Q01DX009 (ip), vehicle: saline with Tween-80 100 % of control | dose: 25.0 mg/kg/injection, schedule: Q01DX009 (ip), vehicle: saline with Tween-80 117 % of control | [9] 118 % of control | [10] 114 % of control

COc1cccc(-c2nc(-c3ccccc3)nc(N(C)C)n2)c1O
inactive: dose: 60.0 mg/kg/injection, schedule: Q01DX005 (ip), vehicle: Klucel (hydroxypropylcellulose) (HPC) 98 % of control | dose: 120.0 mg/kg/injection, schedule: Q01DX005 (ip), vehicle: Klucel (hydroxypropylcellulose) (HPC) 92 % of control

Cc1cccnc1NS(=O)(=O)c1ccccc1
inactive: [10] 100 % of control | [11] 100 % of control | dose: 400.0 mg/kg/injection, schedule: Q01DX009 (ip), vehicle: saline with Tween-80 100 % of control

C#CCOC(=O)Nc1nc2ccc([N+](=O)[O-])cc2s1
inactive: [8] 101 % of control | dose: 100.0 mg/kg/injection, schedule: Q01DX009 (ip), vehicle: Klucel (hydroxypropylcellulose) (HPC) 99 % of control | dose: 200.0 mg/kg/injection, schedule: Q01DX009 (ip), vehicle: Klucel (hydroxypropylcellulose) (HPC) 92 % of control

Reference: PubChem BioAssay AID330 (DTP/NCI, 2004)
